Values after ≈ are worked out from the molar mass of the structure shown. “Also recorded” adds a separate entry of the source. Where two headings read alike, the source gives them in different places.
What was measured:
[1] = tested on: mosquito; assay: mosquito larvacide activity; type: in vivo; details: application rate of about 20 ppm
Excerpt: Antibiotic A-32256 is also active as a mosquito larvacide at an application rate of about 20 ppm.

[2] = tested on: Bacteroides thetaiotaomicron; assay: agar-dilution MIC vs. anaerobic bacteria; type: cell-based
Method: (§1) The agar-dilution procedure described by the International Collaborative Study (ICS) group was used to determine MIC values.
(§2) The MIC was determined by the agar-dilution method.

[3] = tested on: Clostridium septicum; assay: agar-dilution MIC vs. anaerobic bacteria; type: cell-based; details: strain 1128, Table 6
Method: as §1, §2

[4] = tested on: Peptococcus prevoti; assay: agar-dilution MIC vs. anaerobic bacteria; type: cell-based
Method: as §1, §2

[5] = tested on: Actinomyces israellii; assay: agar-dilution MIC vs. anaerobic bacteria; type: cell-based; details: strain W855; Table 6
Method: as §1, §2

[6] = tested on: Streptococcus pyogenes; assay: disc-plate screening procedure, zone of inhibition; details: read-out: Zone Diameter
[7] = tested on: Staphylococcus aureus; assay: disc-plate screening procedure, zone of inhibition
[8] = tested on: Eubacterium aerofaciens; assay: agar-dilution MIC vs. anaerobic bacteria; type: cell-based; details: strain 1235; Table 6
[9] = tested on: Fusobacterium necrophorum; assay: agar-dilution MIC vs. anaerobic bacteria; type: cell-based; details: Fusobacterium necrophorum; strain 6054A; Table 6; read-out: MIC
[10] = tested on: Trichomonas vaginalis; assay: broth dilution assay, antitrichomonal activity; type: cell-based; details: in vitro
[11] = tested on: Peptostreptococcus intermedius; assay: agar-dilution MIC vs. anaerobic bacteria; type: cell-based; details: strain 1264, Table 6
[12] = tested on: Bacteroides fragilis; assay: agar-dilution MIC vs. anaerobic bacteria; type: cell-based; details: Table 6
[13] = tested on: Bacteroides vulgatis; assay: agar-dilution MIC vs. anaerobic bacteria; type: cell-based; details: strain 1211; Table 6
[14] = tested on: Streptococcus sp. (Group D); assay: disc-plate screening procedure, zone of inhibition; details: read-out: Zone Diameter
[15] = tested on: Erwinia amylovora; assay: agar-dilution screening procedure, MIC; type: cell-based
Method: as §1
The results obtained from tests of antibiotic A-32256 in the agar-dilution screening procedure are recorded in Table 5, which follows.

[16] = tested on: B. vulgatis; assay: agar-dilution MIC vs. Bacteroides species; type: cell-based; details: B. vulgatis 1563; 24 hours; Table 8
Method: as §1
(§3) The MIC values were determined by the agar-dilution method, the endpoints being read 24 hours after incubation, and are recorded in Table 8, which follows.

[17] = tested on: B. thetaiotaomicron; assay: agar-dilution MIC vs. Bacteroides species; type: cell-based; details: 24 hours, Table 8
Method: as §1, §3

[18] = tested on: B. corrodens; assay: agar-dilution MIC vs. Bacteroides species; type: cell-based; details: B. corrodens 1874; 24 hours; Table 8
Method: as §1, §3

[19] = tested on: Bacteroides fragilis; assay: agar-dilution MIC vs. Bacteroides species; type: cell-based; details: 24 hours, Table 8
Method: as §1, §3

[20] = tested on: Propionibacterium acnes; assay: agar-dilution MIC against Propionibacterium acnes; type: cell-based; details: Cutibacterium acnes, Table 7
Excerpt: as §1
Antibiotic A-32256 is also active against a genus of anaerobic bacteria identified as Propionibacterium acnes, the MIC values being determined by the agar-dilution method, and set forth in Table 7, which follows.

[21] = tested on: Streptococcus pneumoniae; assay: disc-plate screening procedure, zone of inhibition; details: read-out: Zone Diameter
[22] = tested on: Peptostreptococcus anaerobius; assay: agar-dilution MIC vs. anaerobic bacteria; type: cell-based; details: strain 1428, Table 6
[23] = tested on: Clostridium perfringens; assay: microbe, parasite or virus in culture; type: cell-based; details: Clostridium perfringens, strain 81; Table 6
[24] = potentiometric titration; type: physicochemical; details: 66% dimethylformamide in water, initial pH 4.1
Method: Antibiotic A-32256 is a green, crystalline solid having a melting point of about 196°-198° C. The antibiotic has a molecular weight of 402, as determined by electron-impact mass spectrometry, and an approximate elemental analysis as follows: 68.71% carbon, 4.48% hydrogen, 6.93% nitrogen, and 19.21% oxygen. Based on elemental analysis and molecular weight, an empirical formula of C23 H18 N2 O5 is assigned to antibiotic A-32256. […] Antibiotic A-32256 has specific rotation of [α]D^25 +5° (c 0.96, chloroform).

[25] = solubility; type: physicochemical

## Cc1cccc(O)c1C(=O)OC(C)c1cccc2nc3c(C(=O)O)cccc3nc12 (stereo not drawn) [Antibiotic A-32256, 6-[1-[(2-hydroxy-6-methylbenzoyl)oxy]-ethyl]-1-phenazinecarboxylic acid]
[1]
  mosquito larvacide activity: active
[2]
  MIC: ≤ 0.5 µg/mL
[3]
  MIC: ≤ 0.5 µg/mL
[4]
  MIC: ≤ 0.5 µg/mL
[5]
  MIC: 16 µg/mL (≈ 39.8 µM)
[6]
  zone of inhibition at 30 µg/disc: 11 mm
  zone of inhibition at 300 µg/disc: 13 mm
[7]; read-out: Zone Diameter, S. aureus 3055, benzylpenicillin-susceptible, 30 mcg/disc
  zone of inhibition at 30 µg/disc: 23 mm
[7]; read-out: Zone Diameter, S. aureus 3055, benzylpenicillin-susceptible, 300 mcg/disc
  zone of inhibition at 300 µg/disc: 26.2 mm
[7]; read-out: Zone Diameter, S. aureus 3074, benzylpenicillin-resistant, 30 mcg/disc
  zone of inhibition at 30 µg/disc: 10 mm
[7]; read-out: Zone Diameter, S. aureus 3074, benzylpenicillin-resistant, 300 mcg/disc
  zone of inhibition at 300 µg/disc: 12.2 mm
[7]; read-out: Zone Diameter, S. aureus 3130, methicillin-resistant, 30 mcg/disc
  zone of inhibition at 30 µg/disc: 25.8 mm
[7]; read-out: Zone Diameter, S. aureus 3130, methicillin-resistant, 300 mcg/disc
  zone of inhibition at 300 µg/disc: 30 mm
[8]
  MIC: 2 µg/mL (≈ 4.97 µM)
[9]
  MIC: 1 µg/mL (≈ 2.49 µM)
[10]
  antitrichomonal activity: has shown antitrichomonal activity in vitro
[11]
  MIC: ≤ 0.5 µg/mL
[12]; Bacteroides fragilis, strain 111, read-out: MIC
  MIC: 1 µg/mL (≈ 2.49 µM)
[12]; Bacteroides fragilis, strain 1936B, read-out: MIC
  MIC: 1 µg/mL (≈ 2.49 µM)
[12]; strain 1877
  MIC: 8 µg/mL (≈ 19.9 µM)
[13]
  MIC: 8 µg/mL (≈ 19.9 µM)
[14]
  zone of inhibition at 30 µg/disc: 18.2 mm
  zone of inhibition at 300 µg/disc: 21 mm
[15]
  MIC: 4 µg/mL (≈ 9.94 µM)
[16]
  MIC: 1.0 µg/mL (≈ 2.49 µM)
[17]; B. thetaiotaomicron 1438
  MIC: 1.0 µg/mL (≈ 2.49 µM)
[17]; B. thetaiotaomicron 1900A
  MIC: 1.0 µg/mL (≈ 2.49 µM)
[18]
  MIC: 0.25 µg/mL (≈ 0.621 µM)
[19]; B. fragilis 2
  MIC: 1.0 µg/mL (≈ 2.49 µM)
[19]; B. fragilis 9
  MIC: 1.0 µg/mL (≈ 2.49 µM)
[19]; B. fragilis 62
  MIC: 1.0 µg/mL (≈ 2.49 µM)
[19]; B. fragilis 103
  MIC: 0.5 µg/mL (≈ 1.24 µM)
[19]; B. fragilis 104
  MIC: 1.0 µg/mL (≈ 2.49 µM)
[19]; B. fragilis 106
  MIC: 0.5 µg/mL (≈ 1.24 µM)
[19]; B. fragilis 107
  MIC: 2 µg/mL (≈ 4.97 µM)
[19]; B. fragilis 108
  MIC: 1.0 µg/mL (≈ 2.49 µM)
[19]; B. fragilis 110
  MIC: 0.5 µg/mL (≈ 1.24 µM)
[19]; B. fragilis 111
  MIC: 1.0 µg/mL (≈ 2.49 µM)
[19]; B. fragilis 112
  MIC: 0.5 µg/mL (≈ 1.24 µM)
[19]; B. fragilis 113
  MIC: 1.0 µg/mL (≈ 2.49 µM)
[19]; B. fragilis 1470
  MIC: 0.5 µg/mL (≈ 1.24 µM)
[19]; B. fragilis 1877
  MIC: 1.0 µg/mL (≈ 2.49 µM)
[19]; V. fragilis 1451 (so in the source)
  MIC: 2 µg/mL (≈ 4.97 µM)
[20]; P. acnes 44
  MIC: ≤ 0.015 µg/mL
[20]; P. acnes 79
  MIC: ≤ 0.015 µg/mL
[20]; P. acnes 101
  MIC: ≤ 0.015 µg/mL
[20]; P. acnes 103
  MIC: ≤ 0.015 µg/mL
[20]; P. acnes 104
  MIC: ≤ 0.015 µg/mL
[20]; P. acnes 105
  MIC: 0.03 µg/mL (≈ 0.0746 µM)
[20]; P. acnes 106
  MIC: 0.06 µg/mL (≈ 0.149 µM)
[20]; P. acnes 107
  MIC: ≤ 0.015 µg/mL
[20]; P. acnes 108
  MIC: 0.03 µg/mL (≈ 0.0746 µM)
[20]; P. acnes 5170
  MIC: ≤ 0.015 µg/mL
[20]; P. acnes 5176
  MIC: ≤ 0.015 µg/mL
[20]; P. acnes 5187
  MIC: ≤ 0.015 µg/mL
[20]; P. acnes 5191
  MIC: 0.06 µg/mL (≈ 0.149 µM)
[20]; P. acnes 5197
  MIC: ≤ 0.015 µg/mL
[20]; P. acnes 5226
  MIC: ≤ 0.015 µg/mL
[20]; P. acnes 5227
  MIC: ≤ 0.015 µg/mL
[20]; P. acnes 5228
  MIC: ≤ 0.015 µg/mL
[20]; P. acnes 5229
  MIC: 0.03 µg/mL (≈ 0.0746 µM)
[20]; P. acnes 5246
  MIC: ≤ 0.015 µg/mL
[21]
  zone of inhibition at 30 µg/disc: 14 mm
  zone of inhibition at 300 µg/disc: 16 mm
[22]
  MIC: ≤ 0.5 µg/mL
[23]
  MIC: 2 µg/mL (≈ 4.97 µM)
[24]; pH 4.1, first titratable group
  pKa: ~5.02
[24]; pH 4.1, second titratable group
  pKa: ~7.2
[25]; acetone
  solubility: moderately soluble
[25]; alkaline aqueous solutions
  solubility: soluble
[25]; chloroform
  solubility: easily soluble
[25]; cyclohexane
  solubility: sparingly soluble
[25]; dimethyl sulfoxide
  solubility: moderately soluble
[25]; dioxane
  solubility: moderately soluble
[25]; ethanol
  solubility: sparingly soluble
[25]; ethyl acetate
  solubility: moderately soluble
[25]; hexane
  solubility: sparingly soluble
[25]; methanol
  solubility: sparingly soluble
[25]; pyridine
  solubility: easily soluble
[25]; tetrahydrofuran
  solubility: easily soluble
[25]; water
  solubility: not water soluble; also recorded: insoluble

Reference: patent US4400510A, “A-32256 Phenazine antibiotic” (Eli Lilly and Company, priority 1981, dated 1983)
